Results filed as inconclusive are left out. Calls of active or inactive are those of the source.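 Rule for the calls: active = compound lowering the normal-ribosome reporter at least twice as much as the humanized-ribosome reporter, growth loss under a set limit; inconclusive = no clear call, values can overlap the other calls; inactive = the rest.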
Test system: E. coli WT-GFP vs G2058-humanized RFP, fluorescence, 24 h
Test: E. coli strain growth, wild-type against G2058 humanized RFP mutant – G2058 mutant RFP vs wild-type GFP, cherry-pick, two tests, dose response (AID 1035470)
[1] = measured here: G2058 humanized mutant RFP growth
[2] = E. coli WT-GFP vs G2058-humanized RFP mixed culture, total growth OD600, 24 h

| Structure (SMILES) | AC50 [1] [µM] | AC50 | AC50 [2] [µM] |
| --- | --- | --- | --- |
| Cc1ccccc1-n1nnnc1SCCCC(=O)c1ccc(F)cc1 | > 100 |  |  |
| CNC(=O)C[C@H]1CC[C@@H]2[C@@H](COc3ccc(NC(=O)Nc4ccc(F)c(F)c4)cc3C(=O)N2C)O1 |  | > 100 µM (inactive) |  |
| CC1Cc2cc(-c3csc(NC(=O)Cc4ccccc4)n3)ccc2N1S(C)(=O)=O (stereo not drawn) |  | > 100 µM (inactive) | > 100 |
| COc1cccc(OC)c1CNC(=O)CCSCc1ccccc1F |  | > 100 µM (inactive) | > 100 |
| CCOC(=O)c1ccc(CC(=O)c2oc3cc(O)ccc3c2C)o1 |  | > 100 µM (inactive) |  |
| CCCN(Cc1ccco1)S(=O)(=O)c1ccc(OC)c(OC)c1 | > 100 | > 100 µM (inactive) | > 100 |
| CCOC(=O)Cc1nnc(NC(=O)CSc2nc3ccccc3[nH]2)s1 |  | > 100 µM (inactive) |  |
| CC(C)(C)c1ccc(S(=O)(=O)NCc2ccc(C(=O)NCc3ccccn3)cc2)cc1 |  | > 100 µM (inactive) | > 100 |
| COC(=O)c1ccc(CCc2cc(O)c(Br)cc2O)cc1 |  |  | > 100 |
| O=C(NCCc1ccccn1)c1cccc(S(=O)(=O)N2CCc3ccccc32)c1 |  | > 100 µM (inactive) | > 100 |
| CC(=O)CSc1ccc(-c2nc3ccccc3[nH]2)cn1 |  | > 100 µM (inactive) | > 100 |
| O=S(=O)(c1ccc(Cl)cc1)N1CCN=C1SCc1cccc(Cl)c1 |  | > 100 µM (inactive) |  |
| Fc1ccc(-c2nc3ccc(Cl)cn3c2Cc2cccc(Cl)c2)cc1 |  |  | > 100 |
| Cc1cccc(-c2ccc([C@H]3[C@H](CO)N4CCCCN(S(=O)(=O)c5ccccc5C)C[C@@H]34)cc2)c1 |  | > 100 µM (inactive) | > 100 |
| O=C(Nc1cccc2ccccc12)c1ccc([N+](=O)[O-])o1 |  | > 100 µM (inactive) | > 100 |
| CC[n+]1c(C)cc2c(sc3ccccc32)c1C | > 100 |  | > 100 |
| Cc1c(-c2cccc(Cl)c2)nc2ccccc2c1C(=O)N1CCC2(CC1)OCCO2 |  | > 100 µM (inactive) |  |
| Cc1cc(C(=O)OCC(=O)Nc2cccc(S(N)(=O)=O)c2)c2ccccc2n1 |  | > 100 µM (inactive) |  |
| CC(=O)Nc1cccc(OCCCOc2cccc([N+](=O)[O-])c2)c1 |  | > 100 µM (inactive) | > 100 |
| O=C(Nc1ccc(Cl)cc1)N1C[C@H]2[C@@H](c3ccccc31)[C@@H](CO)N2C(=O)c1ccccn1 |  | > 100 µM (inactive) |  |
| COc1cccc(NC(=O)c2ccc(NCCCN3CCC(C)CC3)c([N+](=O)[O-])c2)c1 | 28.4 |  |  |
| CCOC(=O)c1cc(-c2ccc(OC)cc2)n[nH]1 |  | > 100 µM (inactive) |  |

| Structure (SMILES) | AC50 [1] [µM] | AC50 | AC50 [2] [µM] |
| --- | --- | --- | --- |
| O=C(CCCSc1nc2ccccc2s1)NCc1ccc2c(c1)OCO2 |  | > 100 µM (inactive) |  |
| CCc1nn2cc(C(=O)c3cc(Cl)ccc3O)cnc2c1-c1ccc(F)cc1 |  | > 100 µM (inactive) |  |
| COc1ccc(C(=O)CSc2nc3ccccc3n2CC(=O)c2ccccc2)cc1 | > 100 | > 100 µM (inactive) |  |
| COc1ccc(C2CC(=O)Oc3cc(C)cc(C)c32)cc1 (stereo not drawn) |  | > 100 µM (inactive) |  |
| COc1ccccc1N1CCN(Cc2ccc(OC)c3ccccc23)CC1 |  |  | > 100 |
| CC(C)C[C@@H](CSc1ccccc1)N1CCN(CC(C)C)CCC1=O |  | > 100 µM (inactive) | > 100 |
| COc1ccc(-c2nc3c(C)cc(Br)cn3c2Cc2ccc(C)cc2)cc1OC |  | > 100 µM (inactive) |  |
| COC(=O)c1ccccc1NC(=O)c1ccc2c(c1)CC(C)O2 (stereo not drawn) |  | > 100 µM (inactive) | 52.3 |
| CN(C)S(=O)(=O)c1ccc(Cl)c(C(=O)OCC(=O)NC(=O)c2cccn2C)c1 |  | > 100 µM (inactive) |  |
| CS(=O)(=O)NCCSc1cc(C(F)(F)F)nc2ccccc12 |  | > 100 µM (inactive) |  |
| O=C(O)c1ccccc1-c1ccccc1C(=O)Nc1ccc2c(c1)CCC2 |  | > 100 µM (inactive) |  |
| Cc1ccn2cc(-c3cccc(NC(=O)c4cccs4)c3)nc2c1 |  | > 100 µM (inactive) | > 100 |
| Cc1nc(SCC(=O)Nc2ccc3c(c2)OCCO3)nc(C)c1C |  | > 100 µM (inactive) | 46.5 |
| CCOC(=O)c1c(CS(=O)(=O)c2ccccc2)n(C)c2cc(Br)c(O)cc12 |  | > 100 µM (inactive) |  |
| CC1Cc2ccccc2N1C(=O)CN1C(=O)NC(C)(CCc2ccccc2)C1=O (stereo not drawn) |  |  | > 100 |
| COc1cccc(-c2ccc(SCc3ccccn3)nn2)c1 |  | > 100 µM (inactive) |  |
| CCOc1ccc2nc(SCC(=O)Nc3nonc3C)[nH]c2c1 |  | > 100 µM (inactive) |  |
| O=C(O)c1nn2c(C(F)(F)F)cc(-c3cccs3)nc2c1Cl |  | > 100 µM (inactive) |  |
| Cc1ccc(NS(=O)(=O)c2ccc3c(c2)CCC(=O)N3)cc1C |  | > 100 µM (inactive) | > 100 |
| COc1ccccc1-c1cc2nc(NCCc3ccncc3)ccn2n1 |  | > 100 µM (inactive) | > 100 |
| CCn1c(COc2cccc(OC)c2)nnc1SCC(=O)Nc1cc(OC)ccc1OC | 19.4 |  |  |
| O=C(Nc1cccc2c1CCCC2)c1ccco1 |  | > 100 µM (inactive) | > 100 |
